Calls of active or inactive are those of the source. The rule behind the calls is not given here.

The subject of the data set is CCRIS mutagenicity, Ames/micronucleus/aberration tests. The data set is described as follows: CCRIS mutagenicity studies.
Where [1] appears, read: Test System: AMES SALMONELLA TYPHIMURIUM, Strain/Indicator: TA98, Metabolic Activation: NONE, Method: STANDARD PLATE.
The mark [2] stands for this setting: Test System: AMES SALMONELLA TYPHIMURIUM, Strain/Indicator: TA100, Metabolic Activation: NONE, Method: STANDARD PLATE.
Setting [3] is: Test System: AMES SALMONELLA TYPHIMURIUM, Strain/Indicator: TA102, Metabolic Activation: NONE, Method: STANDARD PLATE.
[4] abbreviates: Test System: AMES SALMONELLA TYPHIMURIUM, Strain/Indicator: TA98, Metabolic Activation: NONE, Method: PREINCUBATION
[5] abbreviates: Test System: AMES SALMONELLA TYPHIMURIUM, Strain/Indicator: TA100, Metabolic Activation: NONE, Method: PREINCUBATION
The mark [6] stands for this setting: Test System: AMES SALMONELLA TYPHIMURIUM, Strain/Indicator: TA98, Metabolic Activation: RAT, LIVER, S-9, AROCLOR 1254, Method: STANDARD PLATE.
The mark [7] stands for this setting: Test System: AMES SALMONELLA TYPHIMURIUM, Strain/Indicator: TA100, Metabolic Activation: RAT, LIVER, S-9, AROCLOR 1254, Method: STANDARD PLATE.
[8] abbreviates: Test System: AMES SALMONELLA TYPHIMURIUM, Strain/Indicator: TA97, Metabolic Activation: NONE, Method: STANDARD PLATE.
[9] abbreviates: Test System: AMES SALMONELLA TYPHIMURIUM, Strain/Indicator: TA97, Metabolic Activation: RAT, LIVER, S-9, AROCLOR 1254, Method: STANDARD PLATE.

On to `C=C(C)C(=O)OCCOC(=O)NCCC(C)CC(C)(C)CNC(=O)OCCOC(=O)C(=C)C` (stereo not drawn), for which the mutagenic call reads like this: (Test System: AMES SALMONELLA TYPHIMURIUM, Strain/Indicator: TA97A, Metabolic Activation: NONE, Method: STANDARD PLATE) “inactive; negative”; (Test System: AMES SALMONELLA TYPHIMURIUM, Strain/Indicator: TA97A, Metabolic Activation: RAT LIVER S-9, PHENOBARBITAL AND BETA-NAPHTHAFLAVONE, Method: STANDARD PLATE) “inactive; negative”; under setting [1], “inactive; negative”; (Test System: AMES SALMONELLA TYPHIMURIUM, Strain/Indicator: TA98, Metabolic Activation: RAT LIVER S-9, PHENOBARBITAL AND BETA-NAPHTHAFLAVONE, Method: STANDARD PLATE) “inactive; negative”; under setting [2], “inactive; negative”; (Test System: AMES SALMONELLA TYPHIMURIUM, Strain/Indicator: TA100, Metabolic Activation: RAT LIVER S-9, PHENOBARBITAL AND BETA-NAPHTHAFLAVONE, Method: STANDARD PLATE) “inactive; negative”. The mutagenic call under setting [3] was “inactive; negative”; the mutagenic call (Test System: AMES SALMONELLA TYPHIMURIUM, Strain/Indicator: TA102, Metabolic Activation: RAT LIVER S-9, PHENOBARBITAL AND BETA-NAPHTHAFLAVONE, Method: STANDARD PLATE) is “inactive; negative”; the mutagenic call (Test System: CHINESE HAMSTER V-79, Strain/Indicator: V79 (HPRT)/6-THIOGUANINE, Metabolic Activation: NONE) was “inactive; negative”.
Turning to `c1cnc2c3c(ccc2c1)CC[C@H]1O[C@@H]31`, under setting [2], the mutagenic call was “active; positive”.
On to `C1=CC2OC2c2cccnc21` (stereo not drawn), for which the mutagenic call reads like this: under setting [2], “inactive; negative”; (Test System: AMES SALMONELLA TYPHIMURIUM, Strain/Indicator: TA100, Metabolic Activation: RAT, LIVER, S-9, AROCLOR 1254 (10% OR 20%), Method: STANDARD PLATE) “inactive; negative”.
For `O=Cc1c([N+](=O)[O-])cccc1[N+](=O)[O-]`, the mutagenic call reads like this: under setting [4], “active; positive”; (Test System: AMES SALMONELLA TYPHIMURIUM, Strain/Indicator: TA98, Metabolic Activation: RAT, LIVER, S-9, PHENOBARBITAL AND 5,6-BENZOFLAVONE, Method: PREINCUBATION) “inactive; negative”; (Test System: AMES SALMONELLA TYPHIMURIUM, Strain/Indicator: TA100(1,8-DNP6), Metabolic Activation: NONE, Method: SUSPENSION/PLATE) “active; positive”; (Test System: AMES SALMONELLA TYPHIMURIUM, Strain/Indicator: TA100(NR), Metabolic Activation: NONE, Method: SUSPENSION/PLATE) “active; positive”; under setting [5], “active; positive”; (Test System: AMES SALMONELLA TYPHIMURIUM, Strain/Indicator: TA100, Metabolic Activation: NONE, Method: SUSPENSION/PLATE) “active; positive”. Moreover, the mutagenic call (Test System: AMES SALMONELLA TYPHIMURIUM, Strain/Indicator: TA100, Metabolic Activation: RAT, LIVER, S-9, PHENOBARBITAL AND 5,6-BENZOFLAVONE, Method: PREINCUBATION) was “active; positive”.
Regarding `Oc1c2c(c3c(ccc4c3ccc3ccc5ccccc5c34)c1O)O2`, the mutagenic call (Test System: AMES SALMONELLA TYPHIMURIUM, Strain/Indicator: TA97, Metabolic Activation: NONE, Method: PREINCUBATION) is “active; positive”; the mutagenic call under setting [4] was “active; positive”; the mutagenic call under setting [5] is “active; positive”; the mutagenic call (Test System: AMES SALMONELLA TYPHIMURIUM, Strain/Indicator: TA104, Metabolic Activation: NONE, Method: PREINCUBATION) is “active; positive”; the mutagenic call (Test System: CHINESE HAMSTER V-79, Strain/Indicator: V-79/6-THIOGUANINE, Metabolic Activation: NONE) was “active; positive”.
Turning to `CCCCOS(=O)(=O)c1ccc(C)cc1`, the mutagenic call runs as follows: (End Point: IN VITRO MICRONUCLEUS, Test System: MOUSE LYMPHOMA L5178Y CELLS, Metabolic Activation: NONE) “active; positive”; (End Point: IN VITRO MICRONUCLEUS, Test System: MOUSE LYMPHOMA L5178Y CELLS, Metabolic Activation: RAT, LIVER, S-9) “inactive; negative”; (End Point: In vitro micronucleus, Test System: Chinese Hamster Ovary (CHO-WBL) cells, Metabolic Activation: None) “active; positive (p<0.01)”; under setting [2], “active; positive”; (Test System: AMES SALMONELLA TYPHIMURIUM, Strain/Indicator: TA100, Metabolic Activation: RAT, LIVER, S-9, Method: STANDARD PLATE) “active; positive”.
Take `Nc1ccc(CCc2ccc(N)cc2)cc1`: the mutagenic call was “inactive; negative” under setting [1], “active; positive” under setting [6], “inactive; negative” under setting [2] and “active; positive” under setting [7].
`Cc1ncc([N+](=O)[O-])n1C`: the mutagenic call was “active; positive” under setting [8]; “active; positive” under setting [9]; “active; positive” under setting [1]; “active; positive” under setting [6]; “active; positive” under setting [2]; “active; positive” under setting [7]. Moreover, the mutagenic call by setting is: under setting [3], “active; positive”; (Test System: AMES SALMONELLA TYPHIMURIUM, Strain/Indicator: TA102, Metabolic Activation: RAT, LIVER, S-9, AROCLOR 1254, Method: STANDARD PLATE) “active; positive”.
Consider `CCCCN(N=O)/C(C=O)=N/O`, for which the mutagenic call was “active; positive” (Test System: AMES SALMONELLA TYPHIMURIUM, Strain/Indicator: TA1535, Metabolic Activation: NONE, Method: STANDARD PLATE) and “active; positive” (Test System: E. COLI, Strain/Indicator: WP2 (HCR-), Metabolic Activation: NONE, Method: STANDARD PLATE).
Turning to `CN1CCN(c2ccc3nc(Cc4ccc5nc(-c6ccc(N(CCCl)CCCl)cc6)[nH]c5c4)[nH]c3c2)CC1`, the mutagenic call is “inactive; negative” under setting [1], “inactive; negative” under setting [2] and “inactive; negative” under setting [3].
Regarding `ClC(Cl)C(Cl)Cl`, the mutagenic call (End Point: IN VITRO CHROMOSOMAL ABERRATIONS, Test System: CHINESE HAMSTER OVARY CELLS, Metabolic Activation: NONE) is “inactive; negative; precipitation occurred at 653 ug/ml”; the mutagenic call (End Point: IN VITRO CHROMOSOMAL ABERRATIONS, Test System: CHINESE HAMSTER OVARY CELLS, Metabolic Activation: RAT, LIVER, S-9, AROCLOR 1254) was “inactive; negative”; the mutagenic call under setting [8] is “active; positive”; the mutagenic call under setting [9] was “active; positive”; the mutagenic call under setting [1] is “active; positive”; the mutagenic call under setting [6] is “active; positive”. Besides, the mutagenic call is “active; positive” under setting [2]; “active; positive” under setting [7]; “inactive; negative” (Test System: AMES SALMONELLA TYPHIMURIUM, Strain/Indicator: TA104, Metabolic Activation: NONE, Method: STANDARD PLATE); “active; positive” (Test System: AMES SALMONELLA TYPHIMURIUM, Strain/Indicator: TA104, Metabolic Activation: RAT, LIVER, S-9, AROCLOR 1254, Method: STANDARD PLATE); “active; positive” (Test System: AMES SALMONELLA TYPHIMURIUM, Strain/Indicator: TA1530, Metabolic Activation: NONE, Method: SPOT); “active; positive” (Test System: AMES SALMONELLA TYPHIMURIUM, Strain/Indicator: TA1535, Metabolic Activation: NONE, Method: SPOT).

These data come from PubChem BioAssay AID1259407 (Chemical Carcinogenesis Research Information System (CCRIS), 2018).
